Laboratory results published in ChEMBL document CHEMBL4145592, “Synthesis of Phosphatidylserine and Its Stereoisomers: Their Role in Activation of Blood Coagulation” (ACS Med Chem Lett, 2018).
Active and inactive are the calls of the source. No cut-off for these calls is given here.

How the values were obtained:
[1] = biological target: T1, Coagulation factor VII/tissue factor (Homo sapiens) (UniProt P08709+P13726); assay: (§1) Activation of full length recombinant human His-tagged tissue factor expressed in Escherichia coli BL21(DE3)/recombinant factor 7a (unknown origin) assessed as induction of coagulant factor-10a production using S-2765 as substrate measured for 2 mins in presence of phosphatidylcholine by colorimetric method relative to phosphatidylcholine alone
[2] = biological target: T1, Coagulation factor VII/tissue factor (Homo sapiens); assay: as §1, with “method” for “method relative to phosphatidylcholine alone”

CCCCCCCC/C=C\CCCCCCCC(=O)OC[C@H](COP(=O)(O)OC[C@H](N)C(=O)O)OC(=O)CCCCCCC/C=C\CCCCCCCC
fold change (FC) [1]: 6

CCCCCCCC/C=C\CCCCCCCC(=O)OC[C@@H](COP(=O)(O)OC[C@H](N)C(=O)O)OC(=O)CCCCCCC/C=C\CCCCCCCC
fold change (FC) [1]: 2

CCCCCCCC/C=C\CCCCCCCC(=O)OC[C@@H](COP(=O)(O)OC[C@@H](N)C(=O)O)OC(=O)CCCCCCC/C=C\CCCCCCCC
Activity [2]: inactive

CCCCCCCC/C=C\CCCCCCCC(=O)OC[C@H](COP(=O)(O)OC[C@@H](N)C(=O)O)OC(=O)CCCCCCC/C=C\CCCCCCCC
Activity [2]: Active
